Measured values: patent US8598132B2, “Glycosylated indolocarbazoles, method for obtaining same and uses thereof” (Universidad de Oviedo, priority 2008, dated 2013)
pIC50: −log10 of the molar value.

Tests used:
[1] = system: CamK2a; test: LabChip (Caliper) kinase assay, CamK2a; assay type: biochemical
Method: (§1) The analysis of kinase activity described here was performed using LabChip (Caliper Life Sciences), specifically the Caliper LC3000 and the EZ Reader II instruments.
(§2) The kinase assay used measures the conversion of a fluorescent peptide (substrate) to a phosphorylated product. The reaction mixture, in a microplate well, is introduced by a capillary in a chip where the non-phosphorylated substrate and the phosphorylated product are separated by […]. The intensity of the fluorescent signal over time is related to the reaction progress. The phosphorylated product migrates quicker than the non-phosphorylated substrate and the signals of the two forms of the peptide appear as differentiated peaks. The Caliper determines the peak height and calculates the ratio of product to the peak sum (P/(P+S)). This value is used to compare wells with compounds and wells with controls and thus determine the % of inhibition for the given product.
The followings kinases were used for the enzymatic inhibition studies, between brackets the value of the Michaelis-Menten constant, Km, of the ATP (Adenosine triphosphate) for each kinase, in μM: obtained from Carna Biosciences: MAPKAPK2 (4.6), AurA (3.6), AurB (5), PKCζ (3.8), RSK1 (23.3), PRAK (5), Erk1 (33.4), PKD2 (32.1), CK1d (16.3), CHK1 (33), ABL (61.7), FYN (36), LYNa (17), CHK2 (57.8), MET (79.5), LCK (28.5), SRC (38), GSK3β (7.3), Erk2 (62.1), PKACα (1.7), AKT2 (186.1), INSR (871.8), p38a (396.5), AKT1(48), MSK1 (21.2), PKCβ2 (84.8), ROCK2 (3.3), PIM2 (4.9), AMPK (38.6), KDR (164.8), IRAK4 (196.5), SGK1 (121.8), SYK (33.5); obtained from Invitrogen: CDK2 (57.6), BTK (123), HGK (80); obtained from Upstate: MST2 (36.6), PKGα (16), PAK2 (1.9), IGF1R (320), FGFR1 (171), MARK1 (33), CAMK2δ (22.4), c-TAK1 (66), DYRK1a (18.1), CaMK4 (3.9), FLT3 (350), c-Raf (6.2), P70S6K (95).
The compounds were dissolved in 100% DMSO and were diluted at 25 times the final concentration desired for the assay. In the case of the determination of Cl50, serial dilutions were made to reach eight concentrations and give rise to the inhibition curve. 1 μL of each concentration is transferred, in duplicate to a 384-well microplate. 12 μL of enzymatic buffer is added to each well containing purified kinase (several suppliers as indicated above), 100 mM HEPES, pH 7.5, 1 mM DTT (Calbiochem), 0.002% Brij-35 (Sigma) and also in presence of 10 mM MgCl2 as cofactor, except for INSR and IRAK4 wherein 10 mM MnCl2 is used instead of MgCl2. For the kinases CAMK26 and CAMK4, 1 mM CaCl2 and 6.7 μg/mL of calmodulin are also added. For KDR kinase, 0.05% of the CHAPSO detergent is added. For the c-Raf kinase, 10 mM MnCl2 is added. For PKCβ2 0.02 μg/mL of PS/PMA is added. For PKGα se 10 μM of cGMP (cyclic guanosine monophosphate) is added. The compound and the enzyme are left for 15 minutes preincubation and, then, the following are added to each well: 12 μL of peptide buffer/ATP containing 100 mM HEPES, pH 7.5, 1.5 μM peptide marker with fluorescein (specific for the corresponding kinase), ATP (at concentration KM), and 0.002% Brij-35 to start the reaction. Generally, the reactions are incubated for 1-1.5 h at ambient temperature to obtain an adequate conversion (15-40%) of the peptide to the phosphorylated product. The reactions were ended by the addition of 45 μL of buffer containing 0 mM EDTA. The microplates were read by the LabChip 3000 using a 12-channel LabChip. The P/(P+S) values were obtained as described above and the CI50 curves were generated using XIfit.
For example, the activity of the Dyrk1a kinase is inhibited in 87% by the compound of formula (III) and completely by the compound of formula (XII) when used at a concentration of 10 nM.

[2] = biological target: T1, AurB (Homo sapiens, UniProt Q96GD4); test: LabChip (Caliper) kinase assay, AurB; assay type: biochemical; details: ATP at Km, read-out: CI50 (the source's name)
T1 construct: purchased Carna Biosciences
Method: as §1
as §2, with “given product. […]” for “given product.”
The compounds were dissolved in 100% DMSO and were diluted at 25 times the final concentration desired for the assay. […] The microplates were read by the LabChip 3000 using a 12-channel LabChip. […]

T1 sequence (Q96GD4 whole entry): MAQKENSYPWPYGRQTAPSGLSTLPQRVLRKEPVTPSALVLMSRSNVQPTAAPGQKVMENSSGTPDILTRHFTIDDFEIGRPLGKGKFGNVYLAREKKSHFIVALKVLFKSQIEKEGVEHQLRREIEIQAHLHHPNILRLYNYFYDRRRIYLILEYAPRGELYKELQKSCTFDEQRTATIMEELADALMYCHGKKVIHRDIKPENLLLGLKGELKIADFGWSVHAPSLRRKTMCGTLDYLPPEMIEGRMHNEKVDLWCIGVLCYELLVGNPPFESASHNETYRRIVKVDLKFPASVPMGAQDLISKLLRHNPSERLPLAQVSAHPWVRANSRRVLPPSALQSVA
T1 sequence (Q9NQS7 803-918 partner limits assumed): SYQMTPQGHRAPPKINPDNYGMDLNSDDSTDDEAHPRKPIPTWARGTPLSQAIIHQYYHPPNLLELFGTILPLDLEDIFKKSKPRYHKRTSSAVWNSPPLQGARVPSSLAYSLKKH

Row | Structure (SMILES) | remaining kinase activity (in %) / percentage of inhibition ([1]; compound at 10 nM) [%] | remaining kinase activity (in %) / percentage of inhibition ([1]; compound at 100 nM) [%] | pIC50 [2]
1 | C[C@@H]1O[C@@H](n2c3ccccc3c3c4c(c5c6ccccc6[nH]c5c32)C(=O)NC4=O)C[C@H](O)[C@H]1O [formula (IV), N^13-1′-β-L-olivosylarcyriaflavin] | 36 | 29 | 
2 | C[C@H]1O[C@@H](n2c3ccccc3c3c4c(c5c6ccccc6[nH]c5c32)CNC4=O)C[C@@H](O)[C@@H]1O [formula (XV), N^13-1′-β-D-olivosyl-k252c] | −6 | 29 | 
3 | C[C@]12O[C@H](C[C@H](O)[C@H]1O)n1c3ccccc3c3c4c(c5c6ccccc6n2c5c31)CNC4=O [formula (XVII), N^12-5′(S)-N^13-1′-(R)-L-olivosyl-k252c] |  |  | 8.17
4 | C[C@@H]1O[C@@H](n2c3ccccc3c3c4c(c5c6ccccc6[nH]c5c32)CNC4=O)[C@H](O)[C@H](O)[C@H]1O [formula (XII), N^13-1′-β-L-rhamnosyl-k252c] | −6 | 2 | 
5 | C[C@@H]1O[C@@H](n2c3ccccc3c3c4c(c5c6ccccc6[nH]c5c32)CNC4=O)C[C@@H](O)[C@H]1O [formula (XIV), N^13-1′-β-L-digitoxosyl-k252c] | −7 | 26 | 
6 | C[C@]12O[C@H](C[C@@H](O)[C@H]1O)n1c3ccccc3c3c4c(c5c6ccccc6n2c5c31)C(=O)NC4=O [formula (IX), N^12-5′(S)-N^13-1′-(R)-L-digitoxosylarcyriaflavin] |  |  | 8.35
7 | C[C@@H]1O[C@@H](n2c3ccccc3c3c4c(c5c6ccccc6[nH]c5c32)CNC4=O)C[C@H](O)[C@H]1O [formula (XIII), N^13-1′-β-L-olivosyl-k252c] | −6 | 27 | 
8 | C[C@@H]1O[C@@H](n2c3ccccc3c3c4c(c5c6ccccc6[nH]c5c32)C(=O)NC4=O)C[C@@H](O)[C@H]1O [formula (V), N^13-1′-β-L-digitoxosylarcyriaflavin] | 15 | 58 | 
9 | C[C@@H]1O[C@@H](n2c3ccccc3c3c4c(c5c6ccccc6[nH]c5c32)C(=O)NC4=O)[C@H](O)[C@H](O)[C@H]1O [formula (III), N^13-1′-β-L-rhamnosylarcyriaflavin] | −5 | 3 | 
10 | C[C@H]1O[C@@H](n2c3ccccc3c3c4c(c5c6ccccc6[nH]c5c32)C(=O)NC4=O)C[C@@H](O)[C@@H]1O [formula (VI), N^13-1′-β-D-olivosylarcyriaflavin] | 4 | 46 | 
